Measured values from patent US8216363B2, “Continuous antisolvent crystallization process and system using plug flow reactors” (Illinois Institute of Technology, priority 2008, dated 2012).
Like-named read-outs stand apart in the source and are kept apart here.

What was measured:
[1] = Crystal size distribution of flufenamic acid crystals by particle analyzer probe (FBRM); assay type: physicochemical; settings: FIG. 10
Method: An undersaturated solution of flufenamic acid (a non-steroidal anti-inflammatory drug) was prepared with 8.7 grams of the active pharmaceutical drug and 700 ml of ethanol (the solvent) in a 1000 ml volumetric flask. The solution was stirred at room temperature (i.e., 25° C.) until complete dissolution.
Flufenamic acid solution and water (the antisolvent) were added to the reactor at constant flow rates using peristaltic pumps. The flow rate of antisolvent added to reactor was chosen in order to maintain a solution/antisolvent ratio of 1:2 vol/vol (ml/ml) in all experiments.
The effects regarding number of addition points of antisolvent on particle size distribution were studied and are summarized in Table 3. In sum, four experiments were conducted. For each experiment, the total antisolvent flow rate was 200 ml/min. In Experiment 1, there was one antisolvent addition point with 200 ml/min of […] added therein. In Experiment 2, there were two antisolvent addition points with 100 ml/min of antisolvent added to the first and second reactor modules, respectively. In Experiment 3, there were three antisolvent addition points with 67 ml/min of antisolvent added to the first, second and third reactor modules, respectively. In Experiment 4, there were four antisolvent addition points with 50 ml/min of antisolvent added to the first, second, third and fourth reactor modules, respectively.
The Raman spectra of the product crystals was collected to ascertain polymorphic form. The CSD of the solid product was also characterized using a particle analyzer probe (e.g., a Lasentec brand probe). The dried crystals were slurried in water and 0.5% of sodium dodecyl sulfate (SDS) surfactant was added to disperse the particles. A magnetic stirrer was used to keep the particles suspended during particle analysis measurements.

[2] = water/methanol 80:20, one stage
Method: The solution was maintained at about 35° C., which is 10° C. above the saturation temperature, for at least 2 hours under gentle agitation for complete dissolution of solids. The solution was cooled down and maintained at room temperature (i.e., 25° C.) overnight (approximately 8 hours).
The concentration of antisolvent introduced to the reactor 403 was suitable to maintain a solution/antisolvent ratio of about 80:20 vol/vol (ml/ml) in all of the experiments.
Three experiments were conducted with one point of antisolvent addition (one stage or one reactor module). The residence time for experiments 1, 2 and 3 were 0.5 to 2 min, respectively.
The process was performed under vacuum. The solid phase was dried overnight (approximately 8 hours) at about 65° C. Raman spectra of the product crystals were collected to ascertain the polymorphic form.

[3] = Crystal size distribution of ketoconazole crystals by laser diffraction (continuous plug flow antisolvent crystallization); assay type: physicochemical
Method: A saturated solution of ketoconazole (an anti-fungal drug) was prepared with about 39 grams of the pharmaceutical compound and about 470 ml of methanol as the solvent in a 1000 ml volumetric flask. The solution was maintained at about 35° C. (10° C. above the saturation temperature) for about 2 hours under gentle agitation to ensure complete dissolution of the solids.
The ketoconazole feed solution (ketoconazole and methanol) and the antisolvent (water) were added to the reactor 403 at a constant flow rate using peristaltic pumps 405. The total amount of antisolvent added to the reactor 403 was enough to maintain a solution/antisolvent ratio of about 70:30 vol/vol (ml/ml) in all of the experiments.
The effect of residence time in the reactor (the term residence time is used to denote the total cumulative residence time in all of the reactor modules combined) and number of stages (that is, the number of reactor modules) on crystal size distribution was studied. […]
The effects of residence time and number of stages on the CSD were analyzed. […] Further, the diluted ketoconazole solid in methanol was measured with a UV spectrophotometer (e.g., a GENESYS 20 UV spectrophotometer) in order to determine the concentration of the ketoconazole. […]
The CSD of ketoconazole was measured at different residence times and number of stages as illustrated in Table 1 using laser diffraction. […]

O=C(O)c1ccccc1Nc1cccc(C(F)(F)F)c1 [flufenamic acid]
mean crystal size ([1]; first addition point of antisolvent, ethanol/water 1:2): 65-70 μm | mean crystal size ([1]; printed as third addition point (second mention)): approximately 110 μm | mean crystal size ([1]; second addition point of antisolvent): approximately 80 μm | mean crystal size ([1]; third addition point of antisolvent): approximately 95 μm

NCC(=O)O [glycine]
polymorphic form of product crystals ([2]; as the residence time increased): β-glycine crystals | polymorphic form of product crystals ([2]; low residence time): α-glycine crystals

CC(=O)N1CCN(c2ccc(OCC3COC(Cn4ccnc4)(c4ccc(Cl)cc4Cl)O3)cc2)CC1 (centres unmarked) [ketoconazole]
mean crystal size ([3]; FIG. 5, first stage of antisolvent addition, residence time about 40 min, methanol/water 70:30): about 2.5 μm | mean crystal size ([3]; FIG. 7, two points of antisolvent addition): about 3.0 μm
